# In paper PMC7650660, “Potential of Cell-Free Supernatant from Lactobacillus plantarum NIBR97, Including Novel Bacteriocins, as a Natural Alternative to Chemical Disinfectants” (Pharmaceuticals, 2020):
# Peptide text beside a SMILES is read from it.
# Columns and labels:
# [1] = system: Salmonella Typhimurium; assay type: cell-based; details: synthetic peptides against S. Typhimurium; Figure S3
# Protocol: L. plantarum NIBR97 was incubated at 37 °C for 24 h in an MRS liquid medium (10 g/L peptone, 8 g/L meat extract, 4 g/L yeast extract, 20 g/L d(+)-glucose, 2 g/L dipotassium hydrogen phosphate, 5 g/L sodium acetate trihydrate, 2 g/L triammonium citrate, 0.2 g/L magnesium sulfate heptahydrate, and 0.05 g/L manganous sulfate tetrahydrate). The cultural broth was centrifuged for 20 min at 2000× g, and the centrifugal supernatant was collected and then sterilized by a 0.22 μm filtration. The sterilized fluid was either applied directly for the examination of antimicrobial activity or fractionated and stored at −80 °C until use. The assessment of antimicrobial activity on a microtiter plate was performed by some modification of the dilution assay of Wiegand et al.. The MIC50 and MIC90 were expressed as total proteins equivalent (μg) per volume (mL) of the sample, and the effect of proteinase K treatment was examined by a previously described procedure.
# Figure 3. Antibacterial activity of synthetic Plantaricins identified from the L. plantarum NIBR97
# genome. Pln 1, 2, 3, 4 and 5 were synthesized according to the amino acid sequences in Figure 3, and
# further examined for their antibacterial activity against a Salmonella enterica serotype, S.
# The Y axis in the graphs represents the relative growth of S. Typhimurium. […]
# [2] = system: HEK-293T cells (human host cells); assay: Cytotoxic effect on host cells (bright-field images) in the lentivirus test; assay type: cell-based; details: lentiviruses treated with 5 μg/μL of synthetic peptides
# Protocol: (A) For fluorescence microscopy, we treated GFP-labeled lentiviruses with the cell-free supernatant for 5 min and 24 h, and then were infected in HEK-293T human host cells. The 1× and 5× correspond to the concentrations treated to the lentiviruses, 79.15 and 395.75 μg total proteins/mL, respectively. The bright-field images (Bright) indicate the HEK-293T cells, and the green signals in the fluorescent images (GFP) represent the GFP-labeled lentiviruses. (B) For scanning electron microscopy, the GFP-labeled lentiviruses were treated without (a) or with the cell-free supernatant (395.75 μg total proteins/mL) (b) for 5 min.
# Figure 5 Fluorescence micrographs of HEK-293T cells infected with GFP-labeled lentiviruses treated with synthetic Pln 3 and 5. The lentiviruses were treated without (control) or with the synthetic peptides (1 to 5 μg/μL) Pln 3 (A) and 5 (B) for 5 min or 24 h, and then the HEK-293T human host cells were infected. The bright-field images (Bright) indicate the HEK-293T cells, and the green signals in the fluorescent images (GFP) represent the GFP-labeled lentiviruses.
# For the anti-viral test, we co-incubated 2 μL of lentivirus soup (2.8 × 10^6 lentiviruses/μL) with 2 μL of test sample for 5 min and 24 h at 25 °C. After the co-incubation, 2 μL from the total 4 μL of the test sample–lentivirus mixture was infected in HEK-293T cells (1 × 10^4 cells per well).
SMILES,MIC50 [1] [µg/mL],cytotoxicity on the human host cells [2]
CC[C@H](C)[C@H](NC(=O)CNC(=O)[C@@H](NC(=O)[C@H](CO)NC(=O)CNC(=O)[C@@H](NC(=O)[C@H](CC(C)C)NC(=O)[C@H](CO)NC(=O)CNC(=O)[C@H](CC(C)C)NC(=O)[C@@H](N)C(C)C)[C@@H](C)CC)C(C)C)C(=O)NCC(=O)N[C@H](C(=O)N[C@@H](CC(C)C)C(=O)N[C@@H](CO)C(=O)N[C@@H](CO)C(=O)N[C@@H](CC(C)C)C(=O)N[C@@H](C)C(=O)N[C@@H](C)C(=O)N[C@@H](CCCNC(=N)N)C(=O)N[C@@H](Cc1ccc(O)cc1)C(=O)N[C@@H](CCCCN)C(=O)O)C(C)C [Pln 1] (H-VLGSLIGSVGIGVLSSLAARYK-OH),5480,
CC[C@H](C)[C@H](N)C(=O)N[C@@H](Cc1ccc(O)cc1)C(=O)N1CCC[C@H]1C(=O)N[C@@H](CCC(=O)O)C(=O)N[C@@H](CCCCN)C(=O)N[C@@H](CCC(N)=O)C(=O)N1CCC[C@H]1C(=O)N[C@@H](CCC(=O)O)C(=O)N[C@@H](CCC(=O)O)C(=O)N1CCC[C@H]1C(=O)N[C@H](C(=O)N[C@@H](CCCNC(=N)N)C(=O)N[C@@H](CCCNC(=N)N)C(=O)O)C(C)C [Pln 2] (H-IYPEKQPEEPVRR-OH),4840,
CSCC[C@H](NC(=O)CNC(=O)[C@@H](NC(=O)[C@@H]1CCCN1C(=O)[C@H](CCSC)NC(=O)CNC(=O)[C@H](CC(N)=O)NC(=O)[C@H](CC(N)=O)NC(=O)[C@H](Cc1ccc(O)cc1)NC(=O)[C@@H](NC(=O)[C@H](CCC(N)=O)NC(=O)[C@H](CS)NC(=O)[C@H](CCCNC(=N)N)NC(=O)[C@H](CCCNC(=N)N)NC(=O)[C@H](CO)NC(=O)[C@H](CCCCN)NC(=O)[C@@H](N)CCCCN)C(C)C)[C@@H](C)O)C(=O)N[C@@H](Cc1ccc(O)cc1)C(=O)N[C@H](C(=O)N[C@@H](CO)C(=O)N[C@@H](CS)C(=O)O)[C@@H](C)O [Pln 3] (H-KKSRRCQVYNNGMPTGMYTSC-OH),5170,exhibited a cytotoxicity on the human host cells
CC[C@H](C)[C@H](NC(=O)CNC(=O)[C@@H](NC(=O)[C@H](C)NC(=O)[C@H](CCSC)NC(=O)[C@H](C)NC(=O)[C@H](CCCCN)NC(=O)[C@H](Cc1ccccc1)NC(=O)[C@@H]1CCCN1C(=O)[C@H](CCC(=O)O)NC(=O)[C@H](CCCNC(=N)N)NC(=O)[C@@H](NC(=O)[C@@H](NC(=O)[C@@H]1CCCN1)[C@@H](C)CC)C(C)C)C(C)C)C(=O)N[C@H](C(=O)N[C@@H](CC(C)C)C(=O)N[C@@H](C)C(=O)N[C@H](C(=O)N[C@@H](CCSC)C(=O)N[C@@H](CO)C(=O)NCC(=O)N[C@@H](CC(C)C)C(=O)N[C@@H](CC(C)C)C(=O)N[C@H](C(=O)N[C@H](C(=O)O)[C@@H](C)O)C(C)C)C(C)C)[C@@H](C)CC [Pln 4] (H-PIVREPFKAMAVGIILAVMSGLLVT-OH),5650,
CC(C)C[C@H](NC(=O)[C@H](CCCNC(=N)N)NC(=O)[C@H](CC(N)=O)NC(=O)[C@H](CCCNC(=N)N)NC(=O)[C@H](CC(C)C)NC(=O)[C@H](Cc1ccccc1)NC(=O)[C@H](CCCNC(=N)N)NC(=O)[C@H](CCCCN)NC(=O)[C@H](CCCCN)NC(=O)[C@H](C)NC(=O)[C@@H](N)CCCCN)C(=O)N[C@@H](CO)C(=O)N[C@@H](CCC(N)=O)C(=O)N[C@@H](CCC(N)=O)C(=O)N[C@@H](C)C(=O)N[C@@H](CCCNC(=N)N)C(=O)N[C@@H](CCCCN)C(=O)N[C@@H](C)C(=O)N[C@@H](CCCNC(=N)N)C(=O)N[C@H](C(=O)N[C@@H](CCCCN)C(=O)O)[C@@H](C)O [Pln 5] (H-KAKKRFLRNRLSQQARKARTK-OH),4450,exhibited a cytotoxicity on the human host cells
